{"source": "paper PMC11477426", "about": "“Interaction of Tri-Cyclic Nucleobase Analogs with Enzymes of Purine Metabolism: Xanthine Oxidase and Purine Nucleoside Phosphorylase” (International Journal of Molecular Sciences, 2024)", "key": {"xanthine oxidase (XO) [1]": {"target": "T1, xanthine oxidase (XO) (Bos taurus, UniProt P80457)", "T1 sequence (P80457 2-1332)": "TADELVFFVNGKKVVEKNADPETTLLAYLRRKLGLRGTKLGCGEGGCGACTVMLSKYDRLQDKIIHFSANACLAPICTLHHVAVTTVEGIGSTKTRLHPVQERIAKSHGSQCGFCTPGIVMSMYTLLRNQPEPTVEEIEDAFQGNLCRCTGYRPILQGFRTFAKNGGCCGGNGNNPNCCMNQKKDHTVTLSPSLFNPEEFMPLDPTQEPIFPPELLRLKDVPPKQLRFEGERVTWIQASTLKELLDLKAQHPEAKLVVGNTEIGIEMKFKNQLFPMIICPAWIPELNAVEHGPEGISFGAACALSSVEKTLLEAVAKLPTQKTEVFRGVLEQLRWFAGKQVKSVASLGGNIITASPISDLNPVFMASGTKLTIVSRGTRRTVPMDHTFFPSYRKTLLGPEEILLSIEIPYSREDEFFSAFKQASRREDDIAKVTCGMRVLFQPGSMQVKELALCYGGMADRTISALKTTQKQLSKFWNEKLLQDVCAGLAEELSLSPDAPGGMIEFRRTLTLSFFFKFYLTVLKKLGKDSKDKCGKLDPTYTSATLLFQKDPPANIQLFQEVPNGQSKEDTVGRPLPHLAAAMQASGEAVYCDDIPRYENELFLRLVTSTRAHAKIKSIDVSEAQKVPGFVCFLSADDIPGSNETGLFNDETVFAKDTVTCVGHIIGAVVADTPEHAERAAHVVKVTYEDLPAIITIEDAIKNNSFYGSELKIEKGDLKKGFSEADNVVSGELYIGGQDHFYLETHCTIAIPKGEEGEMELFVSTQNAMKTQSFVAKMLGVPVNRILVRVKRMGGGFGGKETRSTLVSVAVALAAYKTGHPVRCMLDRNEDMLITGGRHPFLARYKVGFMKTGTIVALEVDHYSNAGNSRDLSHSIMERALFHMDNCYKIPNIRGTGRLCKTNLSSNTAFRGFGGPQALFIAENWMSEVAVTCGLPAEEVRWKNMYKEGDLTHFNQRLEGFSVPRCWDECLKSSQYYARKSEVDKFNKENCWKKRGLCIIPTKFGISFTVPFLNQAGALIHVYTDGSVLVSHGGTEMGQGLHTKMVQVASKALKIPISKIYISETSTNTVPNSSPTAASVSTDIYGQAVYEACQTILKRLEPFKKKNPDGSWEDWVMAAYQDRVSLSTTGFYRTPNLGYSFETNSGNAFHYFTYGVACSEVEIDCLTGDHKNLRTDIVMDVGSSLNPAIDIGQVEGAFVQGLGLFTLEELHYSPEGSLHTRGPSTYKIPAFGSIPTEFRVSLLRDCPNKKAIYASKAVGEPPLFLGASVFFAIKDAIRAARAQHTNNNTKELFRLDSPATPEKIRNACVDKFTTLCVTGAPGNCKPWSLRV", "assay": "isothermal titration calorimetry (estimate only); also oxidation kinetics, apparent Km […] at pH […] and […] at pH […]", "assay_type": "binding", "design": "gene XDH; commercial XO from bovine milk"}, "xanthine oxidase (XO) [2]": {"target": "T1, xanthine oxidase (XO)", "assay": "isothermal titration calorimetry (estimate only); weak substrate in oxidation assay", "assay_type": "binding", "design": "gene XDH; commercial XO from bovine milk", "source_text": "isothermal titration calorimetry (estimate only); weak substrate in oxidation assay on xanthine oxidase (XO) | the endo- and exothermic processes were again observed."}, "[3]": {"target": "T2, purine nucleoside phosphorylase (WT PNP) (Escherichia coli, UniProt P0ABP8)", "T2 construct": "gene deoD; recombinant wild-type E. coli PNP, hexamer", "T2 sequence (P0ABP8 2-239)": "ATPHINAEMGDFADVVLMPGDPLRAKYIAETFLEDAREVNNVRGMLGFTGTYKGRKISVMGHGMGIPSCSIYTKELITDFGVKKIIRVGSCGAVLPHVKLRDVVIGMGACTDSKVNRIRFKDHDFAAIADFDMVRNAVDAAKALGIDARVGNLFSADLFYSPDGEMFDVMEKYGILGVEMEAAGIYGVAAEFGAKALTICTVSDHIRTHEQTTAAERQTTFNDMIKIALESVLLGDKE", "assay": "crystal structure ([…] Å) and isothermal titration calorimetry", "assay_type": "binding"}, "xanthine oxidase (XO) [4]": {"target": "T1, xanthine oxidase (XO)", "assay": "competition with oxidation of I, fluorimetric assay, pH […]", "assay_type": "biochemical", "design": "gene XDH; commercial XO from bovine milk (purified enzyme)"}}, "data": [{"compound": "c1cn2cc3nc[nH]c3nc2n1", "note": "[I, 1,N^2-ε2APu]", "values": [{"measurement": "Kd", "setting": "xanthine oxidase (XO) [1]", "value": "~2.2", "unit": "nM"}]}, {"compound": "c1cn2c(n1)ncc1nc[nH]c12", "note": "[II, N^2,3-ε2APu]", "values": [{"measurement": "Kd", "setting": "xanthine oxidase (XO) [2]", "value": "~7.5", "unit": "nM"}, {"measurement": "Kd", "setting": "[3]", "value": 36200, "unit": "nM"}]}, {"compound": "O=c1[nH]c(=O)c2[nH]cnc2[nH]1", "note": "[xanthine]", "values": [{"measurement": "Ki", "setting": "xanthine oxidase (XO) [4]", "value": 3000, "unit": "nM"}]}]}
